What all share (assay): Bliss excess, mean over the matrix (fraction); higher = more synergy
Assay [1] relates to AMO-1 (Plasma Cell Myeloma). The method in brief:
(§1)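 Cell lines in DMEM/F12 or RPMI with 10% FBS were plated in 1536-well plates, held 24 hours at 37°C, 5% CO2, then given two-drug dose matrices for 72 hours (DMSO typically 0.2%). Viability was read by CellTiter-Glo 2.0 luminescence and scaled as inhibition from 0 (vehicle wells) to 1 (blank wells). Combination Emax is the second-highest inhibition in the matrix; Bliss excess is observed combination effect minus expected EA + EB − EA·EB, EA and EB being single-agent effects.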

The test system of assay [2] is SW13 (Other Solid Carcinomas). The method in brief:
as §1

Assay [3] relates to BT-549 (Breast Carcinoma). The method, boiled down: as §1
Assay [4] concerns PANC-04-03 (Pancreatic Carcinoma). The method, boiled down:
as §1

For assay [5], the system named is KYSE-450 (Esophageal Squamous Cell Carcinoma). The method in brief: as §1
Assay [6] concerns NCI-H727 (Other Solid Carcinomas). The method, boiled down:
as §1

The subject of assay [7] is UACC-62 (Melanoma). The method in brief: as §1
Assay [8] deals with Ca9-22 (Head and Neck Carcinoma). The method, boiled down:
as §1

The test system of assay [9] is YH-13 (Glioblastoma). The method, boiled down:
as §1

Assay [10] concerns RF-48 (B-Cell Non-Hodgkin's Lymphoma). The method in brief: as §1
The test system of assay [11] is TGW (Neuroblastoma). The method in brief: as §1
In assay [12] the test system is MIA-PaCa-2 (Pancreatic Carcinoma). The method, boiled down:
as §1

In assay [13] the test system is ACHN (Kidney Carcinoma). The method in brief: as §1
Assay [14] has as its system KARPAS-299 (T-Cell Non-Hodgkin's Lymphoma). The method, boiled down:
as §1

Assay [15] has as its system MLMA (Other Blood Carcinomas). The method in brief:
as §1

On to `C=CCn1c(=O)c2cnc(Nc3ccc(N4CCN(C)CC4)cc3)nc2n1-c1cccc(C(C)(C)O)n1` [AZD1775] + CCc1c2c(nc3ccc(O)cc13)-c1cc3c(c(=O)n1C2)COC(=O)[C@]3(O)CC [SN-38] (first compound max 1 µM, partner max 0.3 µM), for which the Bliss excess in [1] was -0.052; in assay [2], 0.0119; in [3], -0.057; in assay [4], -0.0594; in [5], 0.0358; in assay [6] it was -0.0018. In addition, the Bliss excess in assay [7] is -0.0497; in [8] it was 0.0045; in [9], -0.0262; in assay [10], -0.0404; in assay [11], -0.0592; in assay [12], 0.0699. The Bliss excess was -0.0634 in assay [13], -0.042 in assay [14] and -0.0639 in assay [15].

Consider `C=CCn1c(=O)c2cnc(Nc3ccc(N4CCN(C)CC4)cc3)nc2n1-c1cccc(C(C)(C)O)n1` [AZD1775] + Nc1ccn([C@@H]2O[C@H](CO)[C@@H](O)C2(F)F)c(=O)n1 [Gemcitabine] (first compound max 1 µM, partner max 0.3 µM), for which the Bliss excess is 0.157 in assay [1]; 0.0385 in assay [2]; -0.0069 in [3]; -0.0346 in assay [4]; 0.0717 in assay [5]; -0.0278 in assay [6]. Further, the Bliss excess is 0.0399 in assay [7]; 0.0821 in [8]; 0.0208 in assay [9]; -0.005 in assay [10]; -0.0355 in [11]; 0.0459 in assay [12]. For the same compound, the Bliss excess in assay [13] is -0.0338; in assay [14] it was 0.0851; in [15], -0.0797.

For `CN(CCO)CC[C@H](CSc1ccccc1)Nc1ccc(S(=O)(=O)NC(=O)c2ccc(N3CCC([C@@H](O)c4ccccc4-c4ccc(Cl)cc4)CC3)cc2)cc1S(=O)(=O)C(F)(F)F` [AZD4320] + CS(=O)(=O)CCNCc1ccc(-c2ccc3ncnc(Nc4ccc(OCc5cccc(F)c5)c(Cl)c4)c3c2)o1 [Lapatinib] (first compound max 1 µM, 7x7, partner max 10 µM), the Bliss excess in assay [1] is 0.0695; in assay [2], 0.0051; in assay [3], -0.0188; in assay [4], -0.0143; in assay [5], -0.0459; in assay [6], 0.0904. Besides, the Bliss excess in assay [7] was -0.0143; in assay [8] it was 0.0479; in [9] it was 0.0183; in assay [10] it was -0.0184; in [11] it was 0.0959; in [12], 0.0373. Further, the Bliss excess in [13] is -0.011; in assay [14] it was 0.0265; in assay [15] it was 0.014.

In the case of `Cc1c2c(nn1C)CSCc1cc(n(C)n1)CSc1cc(c3ccccc3c1)OCCCc1c(C(=O)O)n(C)c3c-2c(Cl)ccc13` [AZD5991] + CC(=O)O[C@H]1C(=O)[C@@]2(C)[C@H]([C@H](OC(=O)c3ccccc3)[C@]3(O)C[C@H](OC(=O)[C@H](O)[C@@H](NC(=O)c4ccccc4)c4ccccc4)C(C)=C1C3(C)C)[C@]1(OC(C)=O)CO[C@@H]1C[C@@H]2O [Paclitaxel] (first compound max 1 µM, 7x7, partner max 3 µM), the Bliss excess in assay [1] is 0.0096; in assay [2], 0.0376; in [3], 0.0124; in assay [4] it was 0.0111; in assay [5], 0.0363; in [6] it was -0.025. Also, the Bliss excess in assay [7] was 0.115; in assay [8], 0.0065; in assay [9], 0.0246; in assay [10], -0.0407; in assay [11] it was -0.0235; in [13], -0.0038. Further, the figures for the Bliss excess in assay [14] and in [15] were -0.0693 and -0.0803, respectively.

`Cc1c2c(nn1C)CSCc1cc(n(C)n1)CSc1cc(c3ccccc3c1)OCCCc1c(C(=O)O)n(C)c3c-2c(Cl)ccc13` [AZD5991] + CS(=O)(=O)CCNCc1ccc(-c2ccc3ncnc(Nc4ccc(OCc5cccc(F)c5)c(Cl)c4)c3c2)o1 [Lapatinib] (first compound max 1 µM, 7x7, partner max 10 µM): the Bliss excess in assay [1] was 0.0149; in [2], 0.0568; in [3], -0.042; in assay [4] it was -0.0275; in assay [5], -0.0108; in assay [6] it was -0.0013. For the same compound, the Bliss excess in [7] was -0.0376; in assay [8], 0.0614; in assay [10], -0.0917; in [11] it was -0.0015; in [12], -0.0094; in assay [13] it was 0.0028. The results for the Bliss excess in [14] and in assay [15] were 0.0227 and -0.0474, respectively.

Regarding `Cc1c2c(nn1C)CSCc1cc(n(C)n1)CSc1cc(c3ccccc3c1)OCCCc1c(C(=O)O)n(C)c3c-2c(Cl)ccc13` [AZD5991] + Nc1ccn([C@@H]2O[C@H](CO)[C@@H](O)C2(F)F)c(=O)n1 [Gemcitabine] (first compound max 1 µM, 7x7, partner max 0.3 µM), the Bliss excess in assay [1] was 0.0042; in assay [2] it was 0.038; in assay [3] it was 0.0278; in assay [4], -0.0643; in assay [5] it was -0.0267; in assay [6], -0.0394. In addition, the Bliss excess in assay [7] is -0.0219; in assay [8], 0.0042; in [9], 0.0143; in [10], 0.0014; in assay [11], 0.007; in assay [12] it was 0.0137. Moreover, the values for the Bliss excess in [13], in assay [14] and in assay [15] were -0.0455, -0.0188 and -0.0451, respectively.

`C[C@@H]1COCCN1c1cc(C2([S@](C)(=N)=O)CC2)nc(-c2ccnc3[nH]ccc23)n1` [AZD6738] + C1CC(C1)(C(=O)[O-])C(=O)[O-].N.N.[Pt+2] [Carboplatin] (first compound max 10 µM, 7x7, partner max 10 µM): the Bliss excess was 0.0025 in assay [1]; -0.0051 in [2]; -0.0453 in assay [3]; -0.0682 in assay [4]; -0.0386 in assay [5]; -0.0445 in assay [6]. Further, the Bliss excess in assay [7] was -0.0289; in assay [8], -0.0479; in [9], -0.0453; in assay [10], -0.0788; in [11] it was -0.0765; in assay [12], -0.0272. For the same compound, the Bliss excess is -0.034 in assay [13], -0.0261 in assay [14] and -0.102 in assay [15].

Regarding `C[C@@H]1COCCN1c1cc(C2([S@](C)(=N)=O)CC2)nc(-c2ccnc3[nH]ccc23)n1` [AZD6738] + Nc1ccn([C@@H]2O[C@H](CO)[C@@H](O)C2(F)F)c(=O)n1 [Gemcitabine] (first compound max 10 µM, 7x7, partner max 0.3 µM), the Bliss excess is 0.0048 in [1]; 0.0493 in assay [2]; -0.0194 in assay [3]; -0.0244 in assay [4]; 0.104 in [5]; 0.0121 in assay [6]. Besides, the Bliss excess in [7] turned out to be 0.0114; in [8], 0.0536; in [9], 0.0228; in [10], 0.0277; in assay [11], 0.0013; in [12] it was 0.0999. In addition, the Bliss excess is 0.0003 in [13], 0.0607 in assay [14] and -0.0777 in assay [15].

As for `C[C@@H](Nc1cc(F)cc(F)c1)c1cc(C(=O)N(C)C)cc2c(=O)cc(N3CCOCC3)oc12` [AZD8186] + C1CN(CCC1(C(=O)N[C@@H](CCO)C2=CC=C(C=C2)Cl)N)C3=NC=NC4=C3C=CN4 [AZD5363] (first compound max 10 µM, 7x7, partner max 10 µM), the Bliss excess in [1] is 0.0309; in assay [2], 0.0092; in assay [3], -0.0011; in [4] it was -0.0712; in assay [5], 0.0035; in [6], -0.0149. Also, the Bliss excess in assay [7] was -0.0382; in [8], -0.0508; in assay [9] it was 0.0106; in assay [10], -0.033; in [11] it was -0.0683; in assay [12] it was 0.0056. Further, the Bliss excess in assay [13] was 0.04; in assay [14], 0.0092; in assay [15], -0.0797.

(Values after the supplement of paper PMC11061612.)
